How the values were obtained:
sugar beet = experiment: Test B pre/postemergence sugar beet; assay type: in vivo, Beta vulgaris
Procedure, shortened: (§1)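 Test chemicals in a non-phytotoxic solvent mixture with surfactant were sprayed preemergence onto planted seeds and postemergence onto plants 2 to 18 cm tall (1- to 4-leaf stage). After twelve to sixteen days in a greenhouse, injury was visually rated against untreated controls from 0 (no effect) to 10 (complete control).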

bedstraw = experiment: Test B pre/postemergence bedstraw; assay type: in vivo, Galium aparine
Procedure, shortened: as §1

pigweed = experiment: Test B pre/postemergence pigweed; assay type: in vivo, Amaranthus retroflexus
Procedure, shortened: as §1

rape = experiment: Test B pre/postemergence rape; assay type: in vivo, Brassica napus
Procedure, shortened: as §1

corn = experiment: Test B pre/postemergence corn; assay type: in vivo, Zea mays
Procedure, shortened: as §1

smallflower flatsedge = experiment: Test B flood test smallflower flatsedge; assay type: in vivo, Cyperus difformis
Procedure, shortened: (§2)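 Plants were grown to the 2-leaf stage before treatment with test chemical, then held in a greenhouse for twelve to sixteen days. Injury was visually rated against untreated controls on a 0–10 scale, where 0 is no effect and 10 is complete control.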

giant foxtail = experiment: Test B pre/postemergence giant foxtail; assay type: in vivo, Setaria faberii
Procedure, shortened: as §1

crabgrass = experiment: Test B pre/postemergence crabgrass; assay type: in vivo, Digitaria sanguinalis
Procedure, shortened: as §1

rice = experiment: Test B flood test rice; assay type: in vivo, Oryza sativa
Procedure, shortened: as §2

blackgrass = experiment: Test B pre/postemergence blackgrass; assay type: in vivo, Alopecurus myosuroides
Procedure, shortened: as §1

morningglory = experiment: Test B pre/postemergence morningglory; assay type: in vivo, Ipomoea hederacea
Procedure, shortened: as §1

bamyardgrass = experiment: Test B flood test barnyardgrass; assay type: in vivo, Echinochloa crus-galli
Procedure, shortened: as §2

wild oat = experiment: Test B pre/postemergence wild oat; assay type: in vivo, Avena fatua
Procedure, shortened: as §1

wheat = experiment: Test B pre/postemergence wheat; assay type: in vivo, Triticum aestivum
Procedure, shortened: as §1

surinam grass = experiment: Test B pre/postemergence surinam grass; assay type: in vivo, Brachiaria decumbens
Procedure, shortened: as §1

purple nutsedge = experiment: Test B pre/postemergence purple nutsedge; assay type: in vivo, Cyperus rotundus
Procedure, shortened: as §1

[1] = Postemergence, Rate 62 g/ha, scale 0 to 10, 0 is no effect, 10 is complete control
[2] = Postemergence, Rate 250 g/ha, scale 0 to 10, 0 no effect, 10 complete control
[3] = Preemergence, Rate 31 g/ha, visual rating, scale 0 to 10 (0 no effect, 10 complete control)
[4] = Preemergence, Rate 62 g/ha, scale 0 to 10, 0 is no effect, 10 is complete control
[5] = Preemergence, Rate 125 g/ha, scale 0 to 10 (0 no effect, 10 complete control)
[6] = Preemergence, Rate 250 g/ha, scale of 0 to 10 where 0 is no effect and 10 is complete control
[7] = Rate 125 g/ha, Postemergence, scale 0 to 10, 0 no effect, 10 complete control
[8] = Rate 31 g/ha, Postemergence, scale 0 to 10
[9] = Rate 125 g/ha, Postemergence section (flood test species), scale 0 to 10, 0 no effect, 10 complete control
[10] = flood test, listed under Postemergence, Rate 250 g/ha, scale 0 to 10, 0 no effect, 10 complete control
[11] = Rate 500 g/ha, Postemergence section of Table B, 0 to 10 scale (0 no effect, 10 complete control)

CCN(C(=O)n1oc(=O)n(-c2c(C)cccc2C)c1=O)C1CCCCC1 [Compound 27]
Sugarbeets plant response rating (sugar beet; [1]): 0 | Sugarbeets plant response rating (sugar beet; [2]): 0 | Sugarbeets plant response rating (sugar beet; [3]): 0 | Plant response rating, Sugarbeets (sugar beet; [4]): 0 | Plant response rating, Sugarbeets (sugar beet; [5]): 0 | Plant response rating, Sugarbeets (sugar beet; [6]): 0 | Sugarbeets plant response rating (sugar beet; [7]): 0 | Bedstraw plant response rating (bedstraw; [1]): 0 | Bedstraw plant response rating (bedstraw; [2]): 0 | Bedstraw plant response rating (bedstraw; [3]): 0 | Plant response rating, Bedstraw (bedstraw; [4]): 0 | Plant response rating, Bedstraw (bedstraw; [5]): 0 | Plant response rating, Bedstraw (bedstraw; [6]): 0 | Bedstraw plant response rating (bedstraw; [8]): 0 | Bedstraw plant response rating (bedstraw; [7]): 0 | Redroot pigweed plant response rating (pigweed; [1]): 0 | Redroot pigweed plant response rating (pigweed; [2]): 0 | Redroot pigweed plant response rating (pigweed; [3]): 0 | Plant response rating, Redroot pigweed (pigweed; [4]): 0 | Plant response rating, Redroot pigweed (pigweed; [5]): 0 | Plant response rating, Redroot pigweed (pigweed; [6]): 0 | Redroot pigweed plant response rating (pigweed; [8]): 0 | Redroot pigweed plant response rating (pigweed; [7]): 0 | Rape plant response rating (rape; [1]): 0 | Rape plant response rating (rape; [2]): 0 | Rape plant response rating (rape; [3]): 0 | Plant response rating, Rape (rape; [4]): 0 | Plant response rating, Rape (rape; [5]): 0 | Plant response rating, Rape (rape; [6]): 0 | Rape plant response rating (rape; [8]): 0 | Rape plant response rating (rape; [7]): 0 | Corn plant response rating (corn; [1]): 0 | Corn plant response rating (corn; [2]): 0 | Corn plant response rating (corn; [3]): 0 | Plant response rating, Corn (corn; [4]): 0 | Plant response rating, Corn (corn; [5]): 0 | Plant response rating, Corn (corn; [6]): 0 | Corn plant response rating (corn; [8]): 0 | Corn plant response rating (corn; [7]): 0 | S. Flatsedge plant response rating (smallflower flatsedge; [1]): 0 | S. Flatsedge plant response rating (smallflower flatsedge; [9]): 0 | S. Flatsedge plant response rating (smallflower flatsedge; [10]): 0 | Giant foxtail plant response rating (giant foxtail; [1]): 0 | Giant foxtail plant response rating (giant foxtail; [2]): 0 | Giant foxtail plant response rating (giant foxtail; [3]): 0 | Plant response rating, Giant foxtail (giant foxtail; [4]): 0 | Plant response rating, Giant foxtail (giant foxtail; [5]): 0 | Plant response rating, Giant foxtail (giant foxtail; [6]): 0 | Giant foxtail plant response rating (giant foxtail; [8]): 0 | Giant foxtail plant response rating (giant foxtail; [7]): 0 | Crabgrass plant response rating (crabgrass; [1]): 0 | Crabgrass plant response rating (crabgrass; [2]): 0 | Crabgrass plant response rating (crabgrass; [3]): 0 | Plant response rating, Crabgrass (crabgrass; [4]): 0 | Plant response rating, Crabgrass (crabgrass; [5]): 0 | Plant response rating, Crabgrass (crabgrass; [6]): 0 | Crabgrass plant response rating (crabgrass; [8]): 0 | Crabgrass plant response rating (crabgrass; [7]): 0 | Rice plant response rating (rice; [1]): 0 | Rice plant response rating (rice; [9]): 0 | Rice plant response rating (rice; [11]): 2 | Rice plant response rating (rice; [10]): 0 | Blackgrass plant response rating (blackgrass; [1]): 0 | Blackgrass plant response rating (blackgrass; [2]): 0 | Blackgrass plant response rating (blackgrass; [3]): 0 | Plant response rating, Blackgrass (blackgrass; [4]): 0 | Plant response rating, Blackgrass (blackgrass; [5]): 0 | Plant response rating, Blackgrass (blackgrass; [6]): 0 | Blackgrass plant response rating (blackgrass; [8]): 0 | Blackgrass plant response rating (blackgrass; [7]): 0 | Morningglory plant response rating (morningglory; [1]): 0 | Morningglory plant response rating (morningglory; [2]): 0 | Morningglory plant response rating (morningglory; [3]): 0 | Plant response rating, Morningglory (morningglory; [4]): 0 | Plant response rating, Morningglory (morningglory; [5]): 0 | Plant response rating, Morningglory (morningglory; [6]): 0 | Morningglory plant response rating (morningglory; [8]): 0 | Morningglory plant response rating (morningglory; [7]): 0 | Barnyardgrass plant response rating (bamyardgrass; [1]): 0 | Barnyardgrass plant response rating (bamyardgrass; [9]): 0 | Barnyardgrass plant response rating (bamyardgrass; [11]): 9 | Barnyardgrass plant response rating (bamyardgrass; [10]): 8 | Wild oats plant response rating (wild oat; [1]): 0 | Wild oats plant response rating (wild oat; [2]): 0 | Wild oats plant response rating (wild oat; [3]): 0 | Plant response rating, Wild oats (wild oat; [5]): 0 | Plant response rating, Wild oats (wild oat; [6]): 0 | Wild oats plant response rating (wild oat; [7]): 0 | Wheat plant response rating (wheat; [1]): 0 | Wheat plant response rating (wheat; [2]): 0 | Wheat plant response rating (wheat; [3]): 0 | Plant response rating, Wheat (wheat; [4]): 0 | Plant response rating, Wheat (wheat; [5]): 0 | Plant response rating, Wheat (wheat; [6]): 0 | Wheat plant response rating (wheat; [7]): 0 | B. signalgrass plant response rating (surinam grass; [1]): 0 | B. signalgrass plant response rating (surinam grass; [2]): 0 | B. signalgrass plant response rating (surinam grass; [3]): 0 | Plant response rating, B. signalgrass (surinam grass; [4]): 0 | Plant response rating, B. signalgrass (surinam grass; [5]): 0 | Plant response rating, B. signalgrass (surinam grass; [6]): 0 | B. signalgrass plant response rating (surinam grass; [8]): 0 | B. signalgrass plant response rating (surinam grass; [7]): 0 | Nutsedge plant response rating (purple nutsedge; [1]): 0 | Nutsedge plant response rating (purple nutsedge; [2]): 0 | Nutsedge plant response rating (purple nutsedge; [3]): 0 | Plant response rating, Nutsedge (purple nutsedge; [4]): 0 | Plant response rating, Nutsedge (purple nutsedge; [5]): 0 | Plant response rating, Nutsedge (purple nutsedge; [6]): 0 | Nutsedge plant response rating (purple nutsedge; [8]): 0 | Nutsedge plant response rating (purple nutsedge; [7]): 0

— patent US6737383B1, “Herbicidal oxadiazolidines” (priority 1999, dated 2004)
